As a reminder, the IC50 is the midpoint of a concentration-inhibition curve.

This is an account of results in patent US9018173B2, “Materials and methods for suppressing inflammatory and neuropathic pain” (Indiana University Research and Technology Corp., priority 2010, dated 2015).

“Also recorded” adds a separate entry of the source. Residues, ends and D or L forms follow the SMILES beside them.

The subject of data set [1] is tail kinking and body contortion. In words: Observation of side-effects after i.p. injection in mice. The class given is in vivo. An excerpt:
Referring now to FIG. 24. Biodistribution and side-effects of TAT-CBD3. […] Oxygenated blood was collected from a cardiac puncture. […] The 95% confidence limits are also indicated.
The possible effects of TAT-CBD3 on motor coordination, locomotor function, sedation (rotarod test) and hippocampal-dependent memory (Morris water-maze test) was investigated.

In the next data set the test system is motor coordination. In words: Rotarod test for motor coordination. Format: in vivo, mouse (C57BL6). The settings on record: 10 and 50 mg/kg i.p. The protocol: Rotarod test for motor coordination. The rotarod test was performed as described previously (Onyszchuk, G., He, Y. Y., Berman, N. E., & Brooks, W. M. Detrimental effects of aging on outcome from traumatic brain injury: a behavioral, magnetic resonance imaging, and histological study in mice. J. Neurotrauma. 25, 153-171 (2008)) with slight modifications. Briefly, the latency to fall off a rotating rod was measured at two different rotational accelerations (fast and slow). The rotarod device (IITC Life Science, Inc., Woodland Hills, Calif., USA) consists of a metal rod with hard plastic drums (diameter: 1.25 in) in each of five individual lanes. For slow acceleration, the device was accelerated from 1 rpm to 18 rpm over 90 seconds, with each trial lasting a maximum of 120 seconds. For fast acceleration, the device was accelerated from 1 rpm to 30 rpm over 90 seconds, with each trial lasting a maximum of 120 seconds. The trials ended when the mouse (C57BL6) either fell off the rod or clung to the rod as it made one complete rotation. The rotarod tests were performed before the injection to score the baseline latencies for each animal. These trials also served to acclimate the animals to the test paradigm. […] Performance was evaluated 3 days following injection.
For orientation: In the rotarod test animals must keep their balance on a rotating rod.

The test system of data set [2] is capsaicin-induced meningeal blood flow changes. The settings on record: read-out: IC50 of percent inhibition of capsaicin-induced blood flow; dural application; versus averaged TAT-scramble; n=4-5.
Data set [3] in a line: Biodistribution after i.p. injection (dot blot, FITC fluorescence). The settings on record: 25 mg/kg i.p.
Data set [4] relates to depolarization-induced Ca2+ influx in hippocampal neurons. The data set can be described thus: Fura-2 calcium imaging of hippocampal neurons. The settings on record: expressed from plasmid; KCl 30 mM; Fura-2AM. Format: cell-based, rat. As for the experimental part:
Referring now to FIG. 19. Overexpressed CBD3 or TAT-CBD3 reduces Ca^2+ influx predominantly via N-Type Ca^2+ channels. (FIGS. 19.A and 19.B) hippocampal neurons cultured for 5 days in vitro were transfected with DNA constructs encoding CBD3 or a scramble sequence using Lipofectamine, and then loaded with the ratiometric Ca^2+-sensitive dye Fura-2AM (3 μM). Changes in [Ca^2+]c, in response to plasma membrane depolarization with potassium chloride (KCl, 30 mM), were recorded using time-lapse, wide-field fluorescence microscopy. […] In both panels, n indicates the number of neurons from which Fura-2 fluorescence was recorded. […] (FIG. 19.D) Ca^2+ influx was monitored in DRG neurons using Fura-2AM. […] Changes in the Fura-2 F340/F380 were monitored for 10 min following stimulation with 45 mM KCl. […]
Isolation and maintenance of primary hippocampal neurons for calcium imaging. […] For fluorescence measurements, neurons were plated on glass-bottomed Petri dishes without preplated glia as previously described. […]
Calcium imaging. […] Osmolarity of the solutions was measured with the osmometer Osmette II™ (Precision Systems Inc., Natick, Mass.). […] Fluorescence was recorded through a 505 nm dichroic mirror at 535±25 nm. The fluorescence images were taken every 5 seconds during the time-course of the experiment using the minimal exposure time that provided acceptable image quality. […]

Take `CC(C)C[C@H](NC(=O)CNC(=O)[C@H](CCCNC(=N)N)NC(=O)[C@@H]1CCCN1C(=O)[C@@H](NC(=O)CNC(=O)[C@H](CCCNC(=N)N)NC(=O)[C@H](CC(C)C)NC(=O)[C@H](CCC(=O)O)NC(=O)[C@H](C)NC(=O)[C@H](CC(C)C)NC(=O)[C@H](CCCNC(=N)N)NC(=O)[C@H](CO)NC(=O)[C@H](CCCNC(=N)N)NC(=O)[C@H](C)NC(=O)[C@H](CCCNC(=N)N)NC(=O)[C@H](CCCNC(=N)N)NC(=O)[C@H](CCCNC(=N)N)NC(=O)[C@H](CCC(N)=O)NC(=O)[C@H](CCCNC(=N)N)NC(=O)[C@H](CCCNC(=N)N)NC(=O)[C@H](CCCCN)NC(=O)[C@H](CCCCN)NC(=O)[C@H](CCCNC(=N)N)NC(=O)CNC(=O)[C@@H](N)Cc1ccc(O)cc1)C(C)C)C(=O)O` [TAT-CBD3] (H-YGRKKRRQRRRARSRLAELRGVPRGL-OH; N-terminus and C-terminus assumed): the “side-effects immediately following injection” value in data set [1] (10 and 50 mg/kg) was “A single episode of kinking at the base of the tail and whole body contortion was observed in mice”. Also, the tail kinking episodes entry in data set [1] (n=7 each condition) is recorded as “only a single episode of tail kinking movement was observed in the mice”. For the same compound, the “dose giving mild motor impairment relative to dose required to reduce hypersensitivity in vivo” value in data set [1] (transient tail kinking and body contortion) is recorded as “more than 50 fold”. Besides, in data set [1] (up to 50 mg/kg, n=7), the body contortion entry was “no body contortion was observed in mice”. In the data set on motor coordination, the accelerating rotarod performance result was “had no effect in the accelerating rotarod test”. Moreover, the IC50 in data set [2] came out at 3.1 ± 1.1 µM. In addition, the “tissue distribution (dot blot, anti-TAT antibody)” value in data set [3] (15 min post-injection) is “detected in spleen and largely concentrated in lumbar dorsal root ganglion (DRG) and lumbar section of the spinal cord”; in data set [3] (1 h post-injection), “also detected in kidney, brain, spinal cord and was abundant in the DRG”.

ARSRLAELRGVPRGL (CBD3): the depolarization-induced calcium influx result in data set [4] is reported as “reduced depolarization-induced calcium influx; also recorded: blocked depolarization-induced calcium signaling”.
